The results in this text go back to patent US12384753B2, “17-beta-hydroxysteroid dehydrogenase type 13 inhibitors and methods of use thereof” (Enanta Pharmaceuticals, Inc., priority 2021, dated 2025).

The target of the assay is Recombinant human HSD17B13 (Homo sapiens (Human), UniProt Q7Z5P4). In words: HSD17B13 rapid-fire mass spectrometry assay (RF/MS assay). It counts as biochemical. The note with it: inhibition of HSD17B13; LTB4 10 μM, NAD+ 0.5 mM, RT 3 h; IC50 ranges A-E. Summed up:
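Sf9-expressed human HSD17B13 (80 nM) with 10 μM LTB4 and 0.5 mM NAD+, incubated with compound (0–100 μM) for 3 h at RT in Tris pH 7.5/BSA/Tween-20. After formic acid quench, LTB4 conversion to 12-oxo-LTB4 measured by RapidFire MS/MS. IC50 from normalised residual activity, duplicates.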

The structures appear in SMILES notation.

Recombinant human HSD17B13, sequence (Q7Z5P4 20-300): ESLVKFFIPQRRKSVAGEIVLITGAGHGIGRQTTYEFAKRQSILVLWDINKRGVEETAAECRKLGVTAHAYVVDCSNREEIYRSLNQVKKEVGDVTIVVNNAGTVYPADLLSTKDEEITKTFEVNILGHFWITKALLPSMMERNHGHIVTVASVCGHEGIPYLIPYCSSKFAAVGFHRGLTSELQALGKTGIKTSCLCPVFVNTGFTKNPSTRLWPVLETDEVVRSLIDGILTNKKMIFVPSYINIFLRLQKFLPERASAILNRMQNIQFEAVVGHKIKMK

What is called IC50 is the concentration that gives 50% inhibition. With `COc1cc(C(=O)O)ccc1NS(=O)(=O)c1cncc(-c2ccc(C3CCCCC3)cc2)c1` [Example 433, 4-((5-(4-cyclohexylphenyl)pyridine)-3-sulfonamido)-3-methoxybenzoic acid], the IC50 was in the range of 500 to 1000 nM. As to `COc1cc(C(=O)O)ccc1NS(=O)(=O)c1cncc(C#Cc2cccc(OC(F)(F)F)c2)c1` [Example 434, 3-methoxy-4-((5-((3-(trifluoromethoxy)phenyl)ethynyl)pyridine)-3-sulfonamido)benzoic acid], the IC50 was 500 to 1000 nM. On to `COc1cc(C(=O)O)ccc1NS(=O)(=O)c1cc(-c2ccc(C3CCCCC3)cc2)ccc1F` [Example 435], for which the IC50 was 500 to 1000 nM. Regarding `COc1cc(C(=O)O)ccc1NS(=O)(=O)c1cccc(-c2ccc(C3CCCCC3)cc2)c1F` [Example 436], the IC50 was less than 100 nM. The same measure for `COc1cc(C(=O)O)ccc1NS(=O)(=O)c1ccc(F)c(-c2ccc(C3CCCCC3)cc2)c1` [Example 437]: 100 to 500 nM; for `COc1cc(C(=O)O)ccc1NS(=O)(=O)c1cc(F)cc(-c2ccc(C3CCCCC3)cc2)c1` [Example 438]: less than 100 nM. The figure for `COC/C=C/c1ccc(-c2ncc(S(=O)(=O)Nc3ccc(C(=O)O)cc3OC)s2)cc1` [Example 449, (E)-3-methoxy-4-((2-(4-(3-methoxyprop-1-en-1-yl)phenyl)thiazole)-5-sulfonamido)benzoic acid] is 100 to 500 nM; for `C=C(c1ccc(-c2ncc(S(=O)(=O)Nc3ccc(C(=O)O)cc3OC)s2)cc1)C1CC1` [Example 450] it is less than 100 nM. The figure for `COc1cc(C(=O)O)ccc1NS(=O)(=O)c1cnc(-c2ccc(C3=CCC(c4ccccc4)CC3)cc2)s1` (stereo not drawn) [Example 451, 3-methoxy-4-((2-(2′,3′,4′,5′-tetrahydro-[1,1′:4′,1″-terphenyl]-4-yl)thiazole)-5-sulfonamido)benzoic acid] is 100 to 500 nM. On to `COc1cc(C(=O)O)ccc1NS(=O)(=O)c1cnc(-c2ccc(C3CCC(c4ccccc4)CC3)cc2)s1` (stereo not drawn) [Example 452, 3-methoxy-4-((2-(4-(4-phenylcyclohexyl)phenyl)thiazole)-5-sulfonamido)benzoic acid], for which the IC50 is 100 to 500 nM. The figure for `COc1cc(C(=O)O)ccc1NS(=O)(=O)c1cnc(-c2ccc(C3CCC(C)(C)CC3)cc2)s1` [Example 453] is 100 to 500 nM; for `COc1cc(C(=O)O)ccc1NS(=O)(=O)c1csc(C2=CCC(C)(C)CC2)n1` [Example 454, 4-((2-(4,4-dimethylcyclohex-1-en-1-yl)thiazole)-4-sulfonamido)-3-methoxybenzoic acid] it is 100 to 500 nM; for `COc1cc(C(=O)O)ccc1NS(=O)(=O)c1cnc(-c2ccc(C#CC3CCCC3)cc2)s1` [Example 455, 4-((2-(4-(cyclopentylethynyl)phenyl)thiazole)-5-sulfonamido)-3-methoxybenzoic acid] it is 100 to 500 nM. The figure for `COc1cc(C(=O)O)ccc1NS(=O)(=O)c1ccc2sc(-c3ccc(C4CCC(C)(C)CC4)cc3)nc2c1` [Example 456, 4-((2-(4-(4,4-dimethylcyclohexyl)phenyl)benzo[d]thiazole)-5-sulfonamido)-3-methoxybenzoic acid] is 1000 to 100000 nM. In the case of `COc1cc(C(=O)O)ccc1NS(=O)(=O)c1csc(C2CCC(C)(C)CC2)n1` [Example 457, 4-((2-(4,4-dimethylcyclohexyl)thiazole)-4-sulfonamido)-3-methoxybenzoic acid], the IC50 fell in the range of 500 to 1000 nM. The figure for `COc1cc(C(=O)O)ccc1NS(=O)(=O)N1Cc2nc(-c3ccc(C4CCC(C)(C)CC4)cc3)sc2C1` [Example 458] is 100 to 500 nM. On to `COc1cc(C(=O)O)ccc1NS(=O)(=O)c1csc(-c2ccc3cc(C4=CCC(C)(C)CC4)ccc3c2)n1` [Example 459, 4-((2-(6-(4,4-dimethylcyclohex-1-en-1-yl)naphthalen-2-yl)thiazole)-4-sulfonamido)-3-methoxybenzoic acid], for which the IC50 is 500 to 1000 nM. `COc1cc(C(=O)O)ccc1NS(=O)(=O)N1Cc2nc(-c3ccc([C@H]4CC[C@H](C(F)(F)F)CC4)cc3)sc2C1` [Example 460]: the IC50 was in the range of 1000 to 100000 nM. As for `COc1cc(C(=O)O)ccc1NS(=O)(=O)c1csc(-c2ccc3c(c2)OCCO3)n1` [Example 462], the IC50 lay within 100 to 500 nM. Turning to `COc1cc(C(=O)O)ccc1NS(=O)(=O)c1cccc(C#Cc2cccc(OC(F)(F)F)c2)n1` [Example 463, 3-methoxy-4-((6-((3-(trifluoromethoxy)phenyl)ethynyl)pyridine)-2-sulfonamido)benzoic acid], the IC50 lay within 100 to 500 nM. Take `COc1cc(C(=O)O)ccc1NS(=O)(=O)c1coc(-c2ccc(C3=CCC(C)(C)CC3)cc2)n1` [Example 464]: the IC50 was 100 to 500 nM. Take `COc1cc(C(=O)O)ccc1NS(=O)(=O)c1coc(-c2ccc(C(C)(C)C)cc2)n1` [Example 465]: the IC50 was 100 to 500 nM. The same measure for `COc1cc(C(=O)O)ccc1NS(=O)(=O)c1coc(-c2ccc(C(C)C)cc2)n1` [Example 466, 4-((2-(4-isopropylphenyl)oxazole)-4-sulfonamido)-3-methoxybenzoic acid]: less than 100 nM. `COc1cc(C(=O)O)ccc1NS(=O)(=O)c1coc(-c2ccc(C3CCC(C(F)(F)F)CC3)cc2)n1` (stereo not drawn) [Example 468]: the IC50 was less than 100 nM.

In the case of `CCCCC[C@H]1CC[C@H](c2ccc(-c3cccc(S(=O)(=O)Nc4ccc(C(=O)O)cc4OC)c3F)cc2)CC1` [Example 470], the IC50 lay in the range of 100 to 500 nM.

Consider `COc1cc(C(=O)O)ccc1NS(=O)(=O)c1cccc(-c2ccc(C3=CCC(C(F)(F)F)CC3)cc2)c1F` (stereo not drawn) [Example 471], for which the half-maximal inhibitory concentration (IC50) fell in the range of 100 to 500 nM.

For `COc1cc(C(=O)O)ccc1NS(=O)(=O)c1cccc(-c2ccc(C3CCCCC3)cc2)c1` [Example 472], the IC50 was 100 to 500 nM.

As to `COc1cc(C(=O)O)ccc1NS(=O)(=O)c1cccc(-c2ccc(C3CCC(C)(C)CC3)cc2)c1F` [Example 473], the IC50 was 100 to 500 nM. For `COc1cc(C(=O)O)ccc1NS(=O)(=O)c1cccc(-c2ccc([C@H]3CC[C@@H](C(F)(F)F)CC3)cc2)c1F` [Example 474, 4-((2-fluoro-4′-((1s,4s)-4-(trifluoromethyl)cyclohexyl)-[1,1′-biphenyl])-3-sulfonamido)-3-methoxybenzoic acid], the IC50 lay in the range of 100 to 500 nM. In the case of `COc1cc(C(=O)O)ccc1NS(=O)(=O)c1cccc(-c2ccc([C@H]3CC[C@H](C(F)(F)F)CC3)cc2)c1F` [Example 475, 4-((2-fluoro-4′-((1r,4r)-4-(trifluoromethyl)cyclohexyl)-[1,1′-biphenyl])-3-sulfonamido)-3-methoxybenzoic acid], the IC50 was less than 100 nM. As for `COc1cc(C(=O)O)ccc1NS(=O)(=O)c1cccc(-c2ccc(C3CCC(F)(F)CC3)cc2)c1F` [Example 476], the half-maximal inhibitory concentration (IC50) lay within 100 to 500 nM. The same measure for `COc1cc(C(=O)O)ccc1NS(=O)(=O)c1cccc(-c2ccc(C3=CCC(C(C)(C)C)CC3)cc2)c1F` (stereo not drawn) [Example 477, 4-((4″-(tert-butyl)-2-fluoro-2″,3″,4″,5″-tetrahydro-[1,1′:4′,1″-terphenyl])-3-sulfonamido)-3-methoxybenzoic acid]: 100 to 500 nM. The figure for `COc1cc(C(=O)O)ccc1NS(=O)(=O)c1cccc(-c2ccc([C@H]3CC[C@H](C(C)(C)C)CC3)cc2)c1F` [Example 478, 4-((4′-((1r,4r)-4-(tert-butyl)cyclohexyl)-2-fluoro-[1,1′-biphenyl])-3-sulfonamido)-3-methoxybenzoic acid] is 100 to 500 nM.
